# Test results reported in ChEMBL document CHEMBL2384934, “Discovery of 3-phenyl-1H-5-pyrazolylamine derivatives containing a urea pharmacophore as potent and efficacious inhibitors of FMS-like tyrosine kinase-3 (FLT3)” (Bioorg Med Chem, 2013).
# How the values were obtained:
# [1] = test system: MOLM-13; test: Antitumor activity against human MOLM13 cells xenografted in nu/nu mouse at 10 mg/kg, iv qd administered on days 1 to 5 and day 8 to 12 measured after 48 days; type: functional; conditions: read-out: TGI
# [2] = test system: MOLM-13; test: Antitumor activity against human MOLM13 cells xenografted in nu/nu mouse at 10 mg/kg, iv qd administered on days 1 to 5 and days 8 to 12 measured on day 16; type: functional; conditions: MOLM-13, 384 h, read-out: TGI
# [3] = test system: MOLM-13; test: Antitumor activity against human MOLM13 cells xenografted in nu/nu mouse at 3 mg/kg, iv qd administered on days 1 to 5 and days 8 to 12 measured on day 11; type: functional; conditions: MOLM-13, 264 h, read-out: TGI
# [4] = test system: MOLM-13; test: Antitumor activity against human MOLM13 cells xenografted in nu/nu mouse at 1mg/kg, iv qd administered on days 1 to 5 and days 8 to 12 measured on day 11; type: functional; conditions: MOLM-13, iv, 264 h, read-out: TGI
# [5] = Volume of distribution at steady state in Sprague-Dawley rat at 2 mg/kg, iv; type: ADME, organism-based; design: dose 2 mg/kg, route intravenous; conditions: in vivo, read-out: Vdss
# [6] = Plasma clearance in Sprague-Dawley rat at 2 mg/kg, iv; type: ADME, organism-based; design: dose 2 mg/kg, route intravenous
# [7] = target: T1, Receptor-type tyrosine-protein kinase FLT3 (Homo sapiens, UniProt P36888, ITD); test: Inhibition of FLT3/ITD mutant-mediated stat5 phosphorylation in human MV4-11 cells after 1 hr by Western blot analysis; type: cell-based
# [8] = target: T1, Receptor-type tyrosine-protein kinase FLT3; test: Inhibition of FLT3/ITD mutant phosphorylation in human MV4-11 cells after 1 hr by Western blot analysis; type: cell-based
# [9] = test system: MV4-11; test: Cytotoxicity against human MV4-11 cells harboring FLT3/ITD mutant after 72 hrs by MTS assay; type: functional; conditions: MV4-11, 72 h
# [10] = target: Hepatocyte growth factor receptor (Homo sapiens) (UniProt P08581); test: Inhibition of MET (unknown origin) at 1 uM by kinase Glo assay
# [11] = target: T2, Vascular endothelial growth factor receptor 2 (Homo sapiens, UniProt P35968); test: Inhibition of KDR (unknown origin) at 1 uM by kinase Glo assay
# [12] = target: Serine/threonine-protein kinase mTOR (Homo sapiens) (UniProt P42345); test: Inhibition of FRAP1 (unknown origin) at 1 uM by kinase Glo assay
# [13] = target: Serine/threonine-protein kinase Chk1 (Homo sapiens) (UniProt O14757); test: Inhibition of CHK1 (unknown origin) at 1 uM by kinase Glo assay
# [14] = target: Non-receptor tyrosine-protein kinase TYK2 (Homo sapiens) (UniProt P29597); test: Inhibition of TYK2 (unknown origin) at 1 uM
# [15] = target: Proto-oncogene tyrosine-protein kinase Src (Homo sapiens) (UniProt P12931); test: Inhibition of SRC (unknown origin) at 1 uM
# [16] = target: Ribosomal protein S6 kinase beta-1 (Homo sapiens) (UniProt P23443); test: Inhibition of RPS6KB1 (unknown origin) at 1 uM
# [17] = target: Macrophage-stimulating protein receptor (Homo sapiens) (UniProt Q04912); test: Inhibition of MST1R (unknown origin) at 1 uM
# [18] = target: Mitogen-activated protein kinase 14 (Homo sapiens) (UniProt Q16539); test: Inhibition of MAPK14 (unknown origin) at 1 uM
# [19] = target: Mitogen-activated protein kinase 10 (Homo sapiens) (UniProt P53779); test: Inhibition of MAPK10 (unknown origin) at 1 uM
# [20] = target: Mast/stem cell growth factor receptor Kit (Homo sapiens) (UniProt P10721); test: Inhibition of KIT (unknown origin) at 1 uM
# [21] = target: Tyrosine-protein kinase JAK3 (Homo sapiens) (UniProt P52333); test: Inhibition of JAK3 (unknown origin) at 1 uM
# [22] = target: Tyrosine-protein kinase JAK1 (Homo sapiens) (UniProt P23458); test: Inhibition of JAK1 (unknown origin) at 1 uM
# [23] = target: Tyrosine-protein kinase JAK2 (Homo sapiens) (UniProt O60674); test: Inhibition of JAK2 (unknown origin) at 1 uM
# [24] = target: Inhibitor of nuclear factor kappa-B kinase subunit epsilon (Homo sapiens) (UniProt Q14164); test: Inhibition of IKBKE (unknown origin) at 1 uM
# [25] = target: Inhibitor of nuclear factor kappa-B kinase subunit beta (Homo sapiens) (UniProt O14920); test: Inhibition of IKBKB (unknown origin) at 1 uM
# [26] = target: Glycogen synthase kinase-3 beta (Homo sapiens) (UniProt P49841); test: Inhibition of GSK3B (unknown origin) at 1 uM
# [27] = target: Receptor-type tyrosine-protein kinase FLT3 (Homo sapiens) (UniProt P36888); test: Inhibition of FLT3 (unknown origin) at 1 uM
# [28] = target: Vascular endothelial growth factor receptor 1 (Homo sapiens) (UniProt P17948); test: Inhibition of FLT1 (unknown origin) at 1 uM
# [29] = target: Receptor tyrosine-protein kinase erbB-2 (Homo sapiens) (UniProt P04626); test: Inhibition of ERBB2 (unknown origin) at 1 uM
# [30] = target: Serine/threonine-protein kinase MRCK alpha (Homo sapiens) (UniProt Q5VT25); test: Inhibition of MRCKA (unknown origin) at 1 uM
# [31] = target: Tyrosine-protein kinase BTK (Homo sapiens) (UniProt Q06187); test: Inhibition of BTK (unknown origin) at 1 uM
# [32] = target: T2, Vascular endothelial growth factor receptor 2; test: biochemical; type: cell-based, Sf9
# Description: Inhibition of recombinant GST tagged VEGFR2 (789 to 1356) (unknown origin) transfected in insect sf9 cells after 120 mins by wallac counting analysis
# [33] = test system: U-937; test: cells; conditions: Homo sapiens, U-937, 72 h
# Description: Cytotoxicity against human FLT3 negative U937 cells after 72 hrs by MTS assay
# [34] = cells; conditions: Homo sapiens, RS4-11, 72 h
# Description: Cytotoxicity against human RS4:11 cells harboring wild type FLT3 after 72 hrs by MTS assay
# [35] = test system: MOLM-13; test: cells; conditions: Homo sapiens, MOLM-13, 72 h
# [36] = target: T3, Aurora kinase A (Homo sapiens, UniProt O14965); test: biochemical
# T3 sequence (O14965 whole entry): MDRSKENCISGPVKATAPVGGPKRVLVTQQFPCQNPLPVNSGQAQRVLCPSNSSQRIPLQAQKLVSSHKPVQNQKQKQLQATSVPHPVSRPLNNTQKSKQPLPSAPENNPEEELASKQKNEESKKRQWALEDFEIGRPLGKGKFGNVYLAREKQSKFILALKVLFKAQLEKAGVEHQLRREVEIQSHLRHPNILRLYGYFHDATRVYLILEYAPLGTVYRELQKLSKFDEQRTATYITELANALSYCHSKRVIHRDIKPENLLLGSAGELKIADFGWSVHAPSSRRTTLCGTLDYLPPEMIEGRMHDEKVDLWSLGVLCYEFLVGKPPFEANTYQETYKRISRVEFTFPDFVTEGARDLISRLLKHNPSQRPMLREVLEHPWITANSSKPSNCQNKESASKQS
# Description: Inhibition of recombinant GST tagged Aurora A kinase (123 to 401) (unknown origin) transfected in insect sf9 cells after 90 mins by wallac counting analysis
# T2 sequence (P35968 whole entry): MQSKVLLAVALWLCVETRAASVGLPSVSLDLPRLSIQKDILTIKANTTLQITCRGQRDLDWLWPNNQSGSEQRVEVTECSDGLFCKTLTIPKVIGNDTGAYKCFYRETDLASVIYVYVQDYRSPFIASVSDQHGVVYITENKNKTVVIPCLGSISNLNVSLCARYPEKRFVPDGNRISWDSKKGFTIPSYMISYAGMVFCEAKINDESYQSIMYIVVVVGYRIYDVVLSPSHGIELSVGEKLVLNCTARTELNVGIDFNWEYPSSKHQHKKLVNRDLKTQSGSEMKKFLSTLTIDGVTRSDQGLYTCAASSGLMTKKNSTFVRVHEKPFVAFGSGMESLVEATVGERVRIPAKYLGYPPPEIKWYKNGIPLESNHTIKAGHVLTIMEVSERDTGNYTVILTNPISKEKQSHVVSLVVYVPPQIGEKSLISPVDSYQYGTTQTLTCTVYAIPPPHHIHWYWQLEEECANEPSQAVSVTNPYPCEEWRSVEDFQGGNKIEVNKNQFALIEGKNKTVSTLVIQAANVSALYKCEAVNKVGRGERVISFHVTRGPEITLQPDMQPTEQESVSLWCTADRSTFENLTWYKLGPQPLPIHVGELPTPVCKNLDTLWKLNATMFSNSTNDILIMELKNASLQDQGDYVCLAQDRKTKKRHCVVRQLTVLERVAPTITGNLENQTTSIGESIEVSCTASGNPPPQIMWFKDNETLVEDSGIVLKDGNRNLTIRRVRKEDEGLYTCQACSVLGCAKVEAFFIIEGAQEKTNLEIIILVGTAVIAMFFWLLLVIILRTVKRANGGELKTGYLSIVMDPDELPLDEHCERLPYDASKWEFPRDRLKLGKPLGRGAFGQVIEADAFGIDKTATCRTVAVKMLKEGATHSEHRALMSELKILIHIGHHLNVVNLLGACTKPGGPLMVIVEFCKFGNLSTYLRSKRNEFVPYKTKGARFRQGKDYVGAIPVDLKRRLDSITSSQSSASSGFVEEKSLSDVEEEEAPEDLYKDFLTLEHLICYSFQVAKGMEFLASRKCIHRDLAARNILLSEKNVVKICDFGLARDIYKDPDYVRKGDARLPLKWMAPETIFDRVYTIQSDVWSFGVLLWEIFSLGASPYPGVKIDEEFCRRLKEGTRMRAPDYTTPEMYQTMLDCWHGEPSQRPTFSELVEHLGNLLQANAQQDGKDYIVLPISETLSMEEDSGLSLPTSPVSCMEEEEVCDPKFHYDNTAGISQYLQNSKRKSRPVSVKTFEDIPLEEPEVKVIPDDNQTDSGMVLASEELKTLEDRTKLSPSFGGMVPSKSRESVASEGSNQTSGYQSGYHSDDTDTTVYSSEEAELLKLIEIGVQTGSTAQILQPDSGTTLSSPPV
# T1 sequence (P36888 whole entry, looked up, change not shown): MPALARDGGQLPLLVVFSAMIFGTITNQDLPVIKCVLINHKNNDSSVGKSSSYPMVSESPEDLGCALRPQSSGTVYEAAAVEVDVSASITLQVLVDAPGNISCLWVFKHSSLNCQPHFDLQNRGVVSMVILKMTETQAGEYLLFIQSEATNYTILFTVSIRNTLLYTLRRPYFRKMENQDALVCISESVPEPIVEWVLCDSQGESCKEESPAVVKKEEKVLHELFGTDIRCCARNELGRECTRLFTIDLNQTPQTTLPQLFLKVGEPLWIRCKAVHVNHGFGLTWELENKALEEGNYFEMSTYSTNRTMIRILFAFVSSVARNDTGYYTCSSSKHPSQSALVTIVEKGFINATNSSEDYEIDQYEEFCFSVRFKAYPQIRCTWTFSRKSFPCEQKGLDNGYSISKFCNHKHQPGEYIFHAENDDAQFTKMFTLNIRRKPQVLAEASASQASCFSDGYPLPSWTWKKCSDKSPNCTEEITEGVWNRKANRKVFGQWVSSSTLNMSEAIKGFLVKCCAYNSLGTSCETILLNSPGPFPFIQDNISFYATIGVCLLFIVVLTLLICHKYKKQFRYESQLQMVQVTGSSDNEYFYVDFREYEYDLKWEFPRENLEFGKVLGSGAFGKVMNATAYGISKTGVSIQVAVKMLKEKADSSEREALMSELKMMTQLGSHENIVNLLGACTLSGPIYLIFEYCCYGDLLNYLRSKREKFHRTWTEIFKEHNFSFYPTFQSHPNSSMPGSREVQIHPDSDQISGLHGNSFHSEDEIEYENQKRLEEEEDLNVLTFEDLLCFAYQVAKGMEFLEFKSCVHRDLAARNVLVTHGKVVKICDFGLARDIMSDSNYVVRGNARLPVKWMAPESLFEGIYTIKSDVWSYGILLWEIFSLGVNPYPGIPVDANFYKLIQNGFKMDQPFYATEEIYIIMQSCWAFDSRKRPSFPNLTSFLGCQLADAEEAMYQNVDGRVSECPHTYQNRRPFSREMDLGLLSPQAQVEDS
# Macrophage-stimulating protein receptor (Homo sapiens), sequence (Q04912 25-304 limits assumed): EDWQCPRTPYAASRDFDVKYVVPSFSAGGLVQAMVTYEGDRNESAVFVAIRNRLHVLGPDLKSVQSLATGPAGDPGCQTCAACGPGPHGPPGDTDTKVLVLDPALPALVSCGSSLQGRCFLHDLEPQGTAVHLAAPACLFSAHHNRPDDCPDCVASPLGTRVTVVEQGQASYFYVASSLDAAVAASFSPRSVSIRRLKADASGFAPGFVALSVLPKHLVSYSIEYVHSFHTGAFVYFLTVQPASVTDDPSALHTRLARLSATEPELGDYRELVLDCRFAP
# Macrophage-stimulating protein receptor (Homo sapiens), sequence (Q04912 310-1400 limits assumed): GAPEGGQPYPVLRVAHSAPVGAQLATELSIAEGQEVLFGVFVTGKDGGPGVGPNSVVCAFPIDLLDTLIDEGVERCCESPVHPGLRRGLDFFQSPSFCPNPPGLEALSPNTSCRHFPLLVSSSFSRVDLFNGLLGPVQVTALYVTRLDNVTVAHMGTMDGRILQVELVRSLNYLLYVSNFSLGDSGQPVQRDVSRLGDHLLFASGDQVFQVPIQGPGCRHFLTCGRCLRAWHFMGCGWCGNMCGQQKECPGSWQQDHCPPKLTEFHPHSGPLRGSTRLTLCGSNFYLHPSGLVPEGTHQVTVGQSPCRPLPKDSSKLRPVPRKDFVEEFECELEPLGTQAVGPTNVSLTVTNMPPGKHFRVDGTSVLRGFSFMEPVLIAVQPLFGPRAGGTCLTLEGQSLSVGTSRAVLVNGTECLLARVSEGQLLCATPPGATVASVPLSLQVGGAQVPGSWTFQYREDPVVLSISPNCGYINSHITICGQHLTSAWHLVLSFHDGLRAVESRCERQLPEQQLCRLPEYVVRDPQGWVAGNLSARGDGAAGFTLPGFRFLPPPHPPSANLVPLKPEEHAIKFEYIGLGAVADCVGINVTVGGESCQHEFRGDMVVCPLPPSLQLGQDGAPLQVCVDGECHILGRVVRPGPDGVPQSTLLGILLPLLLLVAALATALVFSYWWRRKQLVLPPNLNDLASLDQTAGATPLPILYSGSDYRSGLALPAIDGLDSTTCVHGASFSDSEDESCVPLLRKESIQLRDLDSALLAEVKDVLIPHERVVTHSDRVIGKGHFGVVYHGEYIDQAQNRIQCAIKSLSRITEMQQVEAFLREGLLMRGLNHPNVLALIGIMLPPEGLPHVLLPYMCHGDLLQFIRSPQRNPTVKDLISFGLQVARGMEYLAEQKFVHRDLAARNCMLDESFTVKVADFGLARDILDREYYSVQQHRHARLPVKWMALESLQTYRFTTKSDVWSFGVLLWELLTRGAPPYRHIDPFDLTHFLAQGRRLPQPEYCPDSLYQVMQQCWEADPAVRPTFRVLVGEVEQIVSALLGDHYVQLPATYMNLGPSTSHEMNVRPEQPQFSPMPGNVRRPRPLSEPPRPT
# Mitogen-activated protein kinase 10 (Homo sapiens), sequence (P53779 whole entry): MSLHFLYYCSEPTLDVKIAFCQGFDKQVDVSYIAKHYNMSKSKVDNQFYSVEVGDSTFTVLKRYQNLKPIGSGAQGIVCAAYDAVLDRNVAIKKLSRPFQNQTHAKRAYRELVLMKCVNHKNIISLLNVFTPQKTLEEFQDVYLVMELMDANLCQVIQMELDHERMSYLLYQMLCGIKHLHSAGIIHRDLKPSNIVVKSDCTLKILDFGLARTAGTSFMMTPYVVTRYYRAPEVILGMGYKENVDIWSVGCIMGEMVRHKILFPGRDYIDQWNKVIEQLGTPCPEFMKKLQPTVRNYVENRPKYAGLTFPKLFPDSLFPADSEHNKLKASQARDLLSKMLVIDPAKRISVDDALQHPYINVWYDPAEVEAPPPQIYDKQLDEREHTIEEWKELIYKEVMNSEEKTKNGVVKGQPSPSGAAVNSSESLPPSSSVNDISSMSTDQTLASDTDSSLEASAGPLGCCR
# Glycogen synthase kinase-3 beta (Homo sapiens), sequence (P49841 whole entry, looked up): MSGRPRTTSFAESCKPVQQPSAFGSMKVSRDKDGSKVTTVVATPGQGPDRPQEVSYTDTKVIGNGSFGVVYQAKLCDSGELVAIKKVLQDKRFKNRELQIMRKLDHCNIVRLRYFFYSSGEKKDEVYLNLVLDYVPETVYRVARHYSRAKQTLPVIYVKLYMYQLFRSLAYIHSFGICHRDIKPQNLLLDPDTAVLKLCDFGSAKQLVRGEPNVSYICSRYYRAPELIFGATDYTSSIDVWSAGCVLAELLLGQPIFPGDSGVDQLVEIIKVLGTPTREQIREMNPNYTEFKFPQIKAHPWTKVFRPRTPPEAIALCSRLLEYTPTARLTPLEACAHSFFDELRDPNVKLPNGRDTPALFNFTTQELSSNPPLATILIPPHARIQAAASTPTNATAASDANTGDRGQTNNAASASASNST
# Receptor-type tyrosine-protein kinase FLT3 (Homo sapiens), sequence (P36888 whole entry): as the sequence (P36888 whole entry, looked up, change not shown) above
# Mitogen-activated protein kinase 14 (Homo sapiens), sequence (Q16539 whole entry): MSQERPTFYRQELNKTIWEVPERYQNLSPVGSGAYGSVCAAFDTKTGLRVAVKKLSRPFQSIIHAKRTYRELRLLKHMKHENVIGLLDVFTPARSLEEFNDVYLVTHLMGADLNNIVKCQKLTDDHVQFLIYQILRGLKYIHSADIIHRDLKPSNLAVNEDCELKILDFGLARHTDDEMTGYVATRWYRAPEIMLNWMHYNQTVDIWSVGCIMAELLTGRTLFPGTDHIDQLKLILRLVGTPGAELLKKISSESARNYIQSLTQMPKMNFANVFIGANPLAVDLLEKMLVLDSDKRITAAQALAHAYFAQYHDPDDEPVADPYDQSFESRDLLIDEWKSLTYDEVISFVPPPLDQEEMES
smiles,measurement,setting,value
CC(C)(C)c1cc(NC(=O)NCc2ccc(-c3cc(NC(=O)c4ccc(OCCN5CCOCC5)cc4)[nH]n3)cc2)no1,inhibition in vivo at 10 mg/kg,[1],70%
same,inhibition in vivo at 10 mg/kg,[2],84%
same,inhibition in vivo at 3 mg/kg,[3],7%
same,inhibition in vivo at 1 mg/kg,[4],66%
same,Vd,[5],3.6 L/kg
same,clearance,[6],10.7 mL/min/kg
same,IC50,[7],1 nM
same,IC50,[8],1 nM
same,GI50,[9],2 nM
same,inhibition,[10],40%
same,inhibition,[11],99%
same,inhibition,[12],-1%
same,inhibition,[13],2%
same,inhibition,[14],86%
same,inhibition,[15],35%
same,inhibition,[16],41%
same,inhibition,[17],13%
same,inhibition,[18],3%
same,inhibition,[19],-3%
same,inhibition,[20],68%
same,inhibition,[21],27%
same,inhibition,[22],82%
same,inhibition,[23],79%
same,inhibition,[24],-5%
same,inhibition,[25],-2%
same,inhibition,[26],2%
same,inhibition,[27],100%
same,inhibition,[28],99%
same,inhibition,[29],-1%
same,inhibition,[30],-2%
same,inhibition,[31],-6%
same,IC50,[32],28 nM
same,GI50,[33],> 20000 nM
same,GI50,[34],900 nM
same,GI50,[35],3 nM
same,IC50,[36],> 1000 nM
